From patent publication US10759754B2, “Aminobenzoic acid derivatives for use as anti-inflammatory agents, anti-metastatic agents and/or anticancer agents” (3R VALO, S.E.C., priority 2016, dated 2020)
“Also recorded” adds a separate entry of the source.

Tests used:
[1] = tested on: macrophage-like J774A.1 cells; test: IFNγ/TNFα-induced NO production (Griess) in J774A.1 cells; format: cell-based, murine; details: pretreatment then IFNγ and TNFα, hydrochloride
Protocol: (§1) Evaluation of NO and Urea production by chemical methods. The MB49-I cells and the J774A.1 cells (25×10^3 cells/well) were grown and pretreated, as indicated, with various anti-inflammatory derivatives, precursors and mono-functional derivatives for a period of 3 h. Afterwards the cells were washed twice with 10% FBS RPMI-1640 and then activated to produce NO for a period of 24 h with cytokines INFγ and TNFα. NO production was measured using the Griess reagent method as previously described.^27 This method involves the detection of nitrite ions (NO2^−) formed by the spontaneous oxidation of NO under physiological conditions. According the manufacture procedure (Life Technologies; # G-7921), equal volumes of sulfanilic acid and N-(1-naphthyl)ethylenediamine are mixed together to form the Griess reagent. In the presence of NO2^−, sulfanilic acid is converted to a diazonium salt, which in turn is coupled to N-(1-naphthyl)ethylenediamine to produce a pink coloration that is measured with a spectrophotometer (Biotek, synergy HT) at 548 nm. In the same manner, urea synthesis through arginase-1 activity was measured using commercially available kit.

MHC-II = test: Flow cytometry of MHC-II surface antigen in IFNγ-activated human macrophages; format: cell-based; details: compound 4 at 10 μM, compound 5 at 25 μM, hydrochloride
Protocol: (§2) Surface antigen expression analysis. To study membrane receptor expression, THP1-derived human macrophages (750×10^4 cells/mL) were pretreated for 3 h with DMSO or compounds 4 and 5, and then left untreated (control) or treated for 48 h with 50 U/mL IFNγ. The expression level of MHC-II and CD40 was evaluated by flow cytometry as described.^21-23

CD40 = test: Flow cytometry of CD40 surface antigen in IFNγ-activated human macrophages; format: cell-based; details: compound 4 at 10 μM, compound 5 at 25 μM, hydrochloride
Protocol: as §2

STAT3 = test: Western blot of phosphorylated STAT3 in IL6-activated human macrophages; format: cell-based; details: human macrophages pretreated 30 min at 10 and 50 μM; 30 min activation with 25 ng/mL IL6; hydrochloride
Protocol: (§3) Cell signaling studies: THP1-derived human macrophages (750×10^3 cells/mL) and MB49-I cells (500×10^3 cells/mL) were pretreated for 30 min with vehicle (DMSO), compounds 4 and 5, at 10, 25 or 50 μM; and then washed and recovered immediately (t=0 min) or after 30 min of activation with 50 U/mL IFNγ, 25 ng/mL IL6, or 10 ng/mL TNFα. Cell lysates were prepared and analyzed by immunoblotting as described.^21-23,25 Briefly, protein samples were resolved by SDS-PAGE under reducing conditions and transferred onto a PVDF membrane. Blots were first probed with rabbit polyclonal antibodies against phospho-STAT1 (pSTAT1), pSTAT3, or p-IκB (all at 1:2000) overnight at 4° C. Blots were then incubated with HRP-conjugated goat anti-rabbit IgG Ab (1:3000) for 1 h at room temperature. The same blots were stripped and then probed with anti-STAT1 or anti-STAT3 Abs (both at 1:1000). In both cases, probed molecules were visualized using an enhancement chemiluminescence detection kit (Thermo Fisher Scientific).

UBC cell line MB49-I = test: IFNγ/TNFα-induced NO production (Griess) in MB49-I cells; format: cell-based, murine; details: 10 and 50 μM
Protocol: as §1

STAT1 [2] = test: Western blot of phosphorylated STAT1 in IFNγ-activated human macrophages; format: cell-based; details: human macrophages pretreated 30 min at 10 and 50 μM; 30 min activation with 50 U/mL IFNγ; hydrochloride
Protocol: as §3

MB49-I cells = test: LPS/IFNγ-induced NO production in MB49-I cells; format: cell-based, murine
Protocol: as §1, with “Afterwards the cells were washed twice with 10% FBS RPMI-1640 and then activated to produce NO for a period of 24 h with cytokines INFγ and TNFα.” left out

[3] = tested on: IκB / NFκB signaling pathway; test: Western blot of phosphorylated IκB in LPS-activated RAW 264.7 cells; format: cell-based, murine; details: 90 min pretreatment at 20 and 37.5 μM, 100 ng/mL LPS 15 min
[4] = tested on: human macrophages THP-1 cells; details: 90 min pretreatment, counted after 24 h
MB49-I tumors = test: Ectopic UBC model, MB49-I tumors implanted in the flank of male mice; format: in vivo; details: i.p. 150 μM during 18 days, tumors recovered day 20
Protocol: Ectopic UBC model. Male C57BL/6J mice (6-8 weeks old), each weighing 15-18 g, were used for the experiments (supplied by Charles River). The mice were housed with free access to food and water on a 12:12 h light:dark cycle with the room temperature maintained at 21° C. MB49 cells, MB49-I cells, and iNOS-deficient MB49-I cells ([…] in 100 μL PBS) were injected subcutaneously (s.c.) into the right flank of the mice. Growth rates of the s.c. tumors were monitored. The size of tumors was determined every 3 days for 24-28 days using a digital caliper and by measuring luciferin luminescence at days 15 and 25 using the IVIS imaging system. A blinded observer measured tumor length and width. The volume of the tumor was calculated from the formula: Length×width2×0.52, where length and width were tumor diameters measured with calipers in mutually perpendicular directions. At a tumor size of approximately 10 mm^3 the mice were divided into different groups. A control group received PBS as treatment. As indicated, other groups were treated at different doses (90, 150 or 300 μM) with an intraperitoneal (i.p.) injection of compounds 4 or 8 every 3-4 days for 18-20 days.^24,27

STAT1 [5] = test: Western blot of phosphorylated STAT1 in IFNγ-activated RAW 264.7 cells; format: cell-based, murine; details: 90 min pretreatment at 20 and 37.5 μM, 5 ng/mL IFNγ 15 min
Protocol: as §3

[6] = tested on: murine macrophages RAW 264.7 cells; details: 90 min pretreatment, counted after 24 h
murine UBC MB49-I cells = details: 90 min pretreatment, counted after 24 h

Cl.NNC(=O)c1ccc(N2C(=O)C=CC2=O)cc1 [Compound 5, 4-(2,5-dioxo-2,5-dihydro-pyrrol-1-yl)-benzoic acid hydrazide hydrochloride]
combined IFNγ/TNFα-induced NO synthesis [1]: effective in reducing; also recorded: efficiently inhibited
IFNγ-induced MHC-II expression (MHC-II): effective in reducing; also recorded: efficiently inhibited
IFNγ-induced CD40 expression (CD40): effective in reducing; also recorded: efficiently inhibited
IL6-induced STAT3 activation (ratio of phosphorylated/no phosphorylated proteins) (STAT3): decreased; also recorded: efficiently inhibited
combined IFNγ/TNFα-induced NO synthesis (UBC cell line MB49-I): efficiently inhibited
IFNγ-induced STAT1 activation (ratio of phosphorylated/no phosphorylated proteins) (STAT1 [2]): decreased; also recorded: efficiently inhibited

CC(=O)N(NC(=O)c1ccc(N2C(=O)C=CC2=O)cc1)C(C)=O [Compound 8, 4-(2,5-dioxo-2,5-dihydro-pyrrol-1-yl)-benzoic acid N′-diacetyl-hydrazide]
IFNγ/LPS-induced NO production (MB49-I cells; 20 and 37.5 μM): more efficient than compound 4
LPS-activated NFκB signaling pathway (ratio p-IkB/IkB) [3]: efficient to inhibit
cytotoxic effect (cell viability) [4]: lower than that of compound 4
tumor volume of muscle-invasive MB49-I tumors (MB49-I tumors): anti-proliferative activity; also recorded: more efficient than compound 4
IFNγ-activated STAT1 signaling pathway (ratio p-STAT1/STAT1) (STAT1 [5]): more efficient than other compounds
cytotoxic effect (cell viability) [6]: lower than that of compound 4
cytotoxic effect (cell viability) (murine UBC MB49-I cells): lower than that of compound 4

CC(=O)N(NC(=O)OC(C)(C)C)C(=O)c1ccc(N2C(=O)C=CC2=O)cc1 [Compound 10, N-acetyl-N-[4-(2,5-dioxo-2,5-dihydro-pyrrol-1-yl)-benzoyl]-hydrazinecarboxylic acid tert-butyl ester]
LPS-activated NFκB signaling pathway (ratio p-IkB/IkB) [3]: efficient to inhibit

CC(=O)N(C(=O)OC(C)(C)C)N(C(C)=O)C(=O)c1ccc(N2C(=O)C=CC2=O)cc1 [Compound 11, N,N′-diacetyl-N′-[4-(2,5-dioxo-2,5-dihydro-pyrrol-1-yl)-benzoyl]-hydrazinecarboxylic acid tert-butyl ester]
LPS-activated NFκB signaling pathway (ratio p-IkB/IkB) [3]: efficient to inhibit

CC(C)(C)OC(=O)NNC(=O)c1ccc(N2C(=O)CCC2=O)cc1 [Compound 12, N′-[4-(2,5-dioxo-pyrrolidin-1-yl)-benzoyl]-hydrazine carboxylic acid tert-butyl ester]
LPS/IFNγ-induced NO synthesis (MB49-I cells; compound 4 at 30 μM, compound 12 at 10, 20, 37.5 and 50 μM): lost its anti-inflammatory activity; also recorded: does not affect
